In patent US11000033B2, “Ketone or oxime compound, and herbicide” (NISSAN CHEMICAL CORPORATION, priority 2014, dated 2021):

Tests used:
Assay type in all cases: in vivo
[1] = system: Echinochloa oryzacola Vasing.; assay: Test Example 1: herbicidal activity, application before weed generation in submerged conditions (symbol A); details: application herbicide amount 320 g/ha
Procedure, shortened: (§1)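 Weed control was rated three weeks after treatment on a 0–5 scale, from 5% or lower up to 90% or more. Pre-emergence water-surface application of diluted emulsion at a predetermined rate was made on the day of sowing, in flooded (4 cm water) pots containing rice seedlings, kept at 25–30 °C under glass.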

[2] = system: Scirpus juncoides; assay: Test Example 1: herbicidal activity, application before weed generation in submerged conditions (symbol B); details: application herbicide amount 320 g/ha
Procedure, shortened: as §1

[3] = system: transplanted rice plant; assay: Test Example 1: effect on crop, application before weed generation in submerged conditions (symbol a); details: application herbicide amount 320 g/ha
Procedure, shortened: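 Rice at 2.5 leaf stage transplanted into submerged soil (4 cm depth) sown with three weed species; herbicide applied before weed emergence.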

[4] = system: Echinochloa oryzacola Vasing.; assay: Test Example 2: herbicidal activity, application during weed generation in submerged conditions (symbol A); details: Table 23; application herbicide amount 320 g/ha; grade 0-5 by criteria of Test Example 1
Procedure, shortened: (§2)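 Compound was applied as a water-diluted emulsion into the standing water of flooded pots (4 cm) once co-sown weeds reached one to two leaves. Greenhouse temperature was 25° C. to 30° C., soil was alluvial, and each species was rated visually after 3 weeks.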

[5] = system: Scirpus juncoides; assay: Test Example 2: herbicidal activity, application during weed generation in submerged conditions (symbol B); details: Table 23; application herbicide amount 320 g/ha; grade 0-5 by criteria of Test Example 1
Procedure, shortened: as §2

[6] = system: Cyperus difformis; assay: Test Example 3: herbicidal effect by foliage application, Wagner pot (symbol E); details: application herbicide amount 320 g/ha
Procedure, shortened: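 In a shallow-flooded alluvial soil system held at 25–30 °C, plants including rice grew for 14 days and were then sprayed over the foliage with emulsion diluted to a fixed herbicide amount. Visual rating followed at 3 weeks.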

[7] = system: Setaria viridis; assay: Test Example 4: herbicidal effect by soil treatment (symbol G); details: 320 g/ha
Procedure, shortened: (§3)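 Seeds were sown in sterilized diluvial soil, covered with about 1.5 cm of soil, and the soil surface was sprayed with a water-diluted emulsion of the compound at a predetermined rate. Plants grew in a greenhouse at 25° C. to 30° C.; effects were scored visually 3 weeks after application.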

[8] = system: Apera spica-venti; assay: Test Example 4: herbicidal effect by soil treatment (symbol L); details: 320 g/ha
Procedure, shortened: as §3

[9] = system: Amaranthus retroflexus; assay: Test Example 4: herbicidal effect by soil treatment (symbol N); details: 320 g/ha
Procedure, shortened: as §3

[10] = system: wheat; assay: Test Example 4: effect on crop by soil treatment (symbol e); details: 320 g/ha
Procedure, shortened: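 Diluvial soil (sterilized) in boxes; seeds placed spot-wise alongside weed species; ~1.5 cm covering soil. Greenhouse, 25–30° C.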

[11] = system: Echinochloa crus-galli var. crus-galli; assay: Test Example 5: herbicidal effect by foliage application, plastic box (symbol H); details: 320 g/ha, 3 weeks after application
Procedure, shortened: (§4)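 Emulsion formulation, diluted with water to the intended rate, was applied uniformly to leaves by small sprayer. Recipients were 14-day greenhouse-grown seedlings (25° C. to 30° C.). Assessment followed at 3 weeks.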

[12] = system: Alopecurus myosuroides; assay: Test Example 5: herbicidal effect by foliage application, plastic box (symbol J); details: 320 g/ha, 3 weeks after application
Procedure, shortened: as §4

[13] = system: Amaranthus retroflexus; assay: Test Example 5: herbicidal effect by foliage application, plastic box (symbol N); details: 320 g/ha, 3 weeks after application
Procedure, shortened: as §4

| SMILES | Herbicidal effect grade, A: Echinochloa oryzacola Vasing. [1] | Herbicidal effect grade, B: Scirpus juncoides [2] | Effect grade on crop, a: transplanted rice plant [3] | Herbicidal effect grade, A: Echinochloa oryzacola Vasing. [4] | Herbicidal effect grade, B: Scirpus juncoides [5] | herbicidal effect on E, grade 0-5 [6] | G: Setaria viridis, herbicidal effect grade [7] | L: Apera spica-venti, herbicidal effect grade [8] | N: Amaranthus retroflexus, herbicidal effect grade [9] | e: wheat, effect grade on crop [10] | H: Echinochloa crus-galli var. crus-galli, herbicidal effect (criteria 0-5) [11] | J: Alopecurus myosuroides, herbicidal effect (criteria 0-5) [12] | N: Amaranthus retroflexus, herbicidal effect (criteria 0-5) [13] |
| --- | --- | --- | --- | --- | --- | --- | --- | --- | --- | --- | --- | --- | --- |
| CCCON=C(C)CC1CC(O)=C(c2c(C)cc(C)cc2C)C1=O (centres unmarked) [1-123] | 5 (Herbicidal ratio of 90% or more (almost completely withered)) | 4 (Herbicidal ratio of 70% or higher and lower than 90%) | 5 (Herbicidal ratio of 90% or more (almost completely withered)) | 5 (Herbicidal ratio of 90% or more (almost completely withered)) | 3 (Herbicidal ratio of 40% or higher and lower than 70%) | 4 (Herbicidal ratio of 70% or higher and lower than 90%) | 5 (Herbicidal ratio of 90% or more (almost completely withered)) | 5 (Herbicidal ratio of 90% or more (almost completely withered)) | 0 (Herbicidal ratio of 5% or lower (almost no effect)) | 0 (Herbicidal ratio of 5% or lower (almost no effect)) | 5 (Herbicidal ratio of 90% or more (almost completely withered)) | 5 (Herbicidal ratio of 90% or more (almost completely withered)) | 0 (Herbicidal ratio of 5% or lower (almost no effect)) |
| CC(CC1CC(O)=C(c2c(C)cc(C)cc2C)C1=O)=NOCC(N)=O (centres unmarked) [1-124] | 1 (Herbicidal ratio of 5% or higher and lower than 20%) | 0 (Herbicidal ratio of 5% or lower (almost no effect)) | 0 (Herbicidal ratio of 5% or lower (almost no effect)) | 2 (Herbicidal ratio of 20% or higher and lower than 40%) | 0 (Herbicidal ratio of 5% or lower (almost no effect)) | 0 (Herbicidal ratio of 5% or lower (almost no effect)) | 3 (Herbicidal ratio of 40% or higher and lower than 70%) | 0 (Herbicidal ratio of 5% or lower (almost no effect)) | 0 (Herbicidal ratio of 5% or lower (almost no effect)) | 0 (Herbicidal ratio of 5% or lower (almost no effect)) | 5 (Herbicidal ratio of 90% or more (almost completely withered)) | 3 (Herbicidal ratio of 40% or higher and lower than 70%) | 0 (Herbicidal ratio of 5% or lower (almost no effect)) |
| CC(CC1CC(O)=C(c2c(C)cc(C)cc2C)C1=O)=NOCC[S+](C)[O-] (centres unmarked) [1-125] | 3 (Herbicidal ratio of 40% or higher and lower than 70%) | 0 (Herbicidal ratio of 5% or lower (almost no effect)) | 5 (Herbicidal ratio of 90% or more (almost completely withered)) | 2 (Herbicidal ratio of 20% or higher and lower than 40%) | 0 (Herbicidal ratio of 5% or lower (almost no effect)) | 2 (Herbicidal ratio of 20% or higher and lower than 40%) | 5 (Herbicidal ratio of 90% or more (almost completely withered)) | 5 (Herbicidal ratio of 90% or more (almost completely withered)) | 0 (Herbicidal ratio of 5% or lower (almost no effect)) | 3 (Herbicidal ratio of 40% or higher and lower than 70%) | 5 (Herbicidal ratio of 90% or more (almost completely withered)) | 5 (Herbicidal ratio of 90% or more (almost completely withered)) | 0 (Herbicidal ratio of 5% or lower (almost no effect)) |
| C=C(C)CN(CC)C(=O)OC1=C(c2c(C)cc(C)cc2C)C(=O)C(CC(C)=NOC)C1 (centres unmarked) [1-130] | 3 (Herbicidal ratio of 40% or higher and lower than 70%) | 0 (Herbicidal ratio of 5% or lower (almost no effect)) | 3 (Herbicidal ratio of 40% or higher and lower than 70%) | 1 (Herbicidal ratio of 5% or higher and lower than 20%) | 0 (Herbicidal ratio of 5% or lower (almost no effect)) | 4 (Herbicidal ratio of 70% or higher and lower than 90%) | 0 (Herbicidal ratio of 5% or lower (almost no effect)) | 3 (Herbicidal ratio of 40% or higher and lower than 70%) | 0 (Herbicidal ratio of 5% or lower (almost no effect)) | 0 (Herbicidal ratio of 5% or lower (almost no effect)) | 5 (Herbicidal ratio of 90% or more (almost completely withered)) | 5 (Herbicidal ratio of 90% or more (almost completely withered)) | 0 (Herbicidal ratio of 5% or lower (almost no effect)) |
| Cc1cc(C)c(C2=C(O)CC(CC(=NOCC(F)(F)F)C3CC3)C2=O)c(C)c1 (centres unmarked) [1-131] | 5 (Herbicidal ratio of 90% or more (almost completely withered)) | 4 (Herbicidal ratio of 70% or higher and lower than 90%) | 4 (Herbicidal ratio of 70% or higher and lower than 90%) | 4 (Herbicidal ratio of 70% or higher and lower than 90%) | 4 (Herbicidal ratio of 70% or higher and lower than 90%) | 5 (Herbicidal ratio of 90% or more (almost completely withered)) | 5 (Herbicidal ratio of 90% or more (almost completely withered)) | 5 (Herbicidal ratio of 90% or more (almost completely withered)) | 0 (Herbicidal ratio of 5% or lower (almost no effect)) | 0 (Herbicidal ratio of 5% or lower (almost no effect)) | 4 (Herbicidal ratio of 70% or higher and lower than 90%) | 5 (Herbicidal ratio of 90% or more (almost completely withered)) | 0 (Herbicidal ratio of 5% or lower (almost no effect)) |
